Experimental data published in US9247759B2, “Identification of human T2R receptors that respond to bitter compounds that elicit the bitter taste in compositions, and the use thereof in assays to identify compounds that inhibit (block) bitter taste in compositions and use thereof” (SENOMYX, INC., priority 2007, dated 2016).

Tests used:
hT2R16 = hT2R16 (Homo sapiens (Human), UniProt Q9NYV7); test: hT2R panel inhibition, transient HEK293 G16g44, agonist Salicin 1 mM; format: cell-based; conditions: HEK293, compound at 25 μM; receptor activated to EC80 with the corresponding agonist; read-out: screening result against bitter receptor 16
In short: (§1)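 Selectivity screen across 22 hT2Rs, each transfected singly into a G16g44-stable HEK293 background. Agonist dosed at EC80. Inhibition = reduced receptor response in presence of test compound.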

hT2R55 = test: hT2R panel inhibition, transient HEK293 G16g44, agonist Cinchonine 150 μM; format: cell-based, human; conditions: compound at 25 μM; receptor activated to EC80 with the corresponding agonist
In short: as §1

hT2R67 = test: hT2R panel inhibition, transient HEK293 G16g44, agonist Andrographolide 5 μM; format: cell-based, human; conditions: compound at 25 μM; receptor activated to EC80 with the corresponding agonist
In short: as §1

hT2R3 = hT2R3 (Homo sapiens (Human), UniProt Q9NYW6); test: hT2R panel inhibition, transient HEK293 G16g44, agonist Chloroquine pH6.5 50 μM; format: cell-based; conditions: receptor activated to EC80 with the corresponding agonist; for inhibition at 25 µM: HEK293, compound at 25 μM, read-out: screening result against bitter receptor 3
In short: as §1

hT2R71 = hT2R71 (Homo sapiens (Human), UniProt P59536); test: hT2R panel inhibition, transient HEK293 G16g44, agonist Picric Acid 10 μM; format: cell-based; conditions: receptor activated to EC80 with the corresponding agonist; for inhibition at 25 µM: HEK293, compound at 25 μM, read-out: screening result against bitter receptor 71
In short: as §1

hT2R10 = hT2R10 (Homo sapiens (Human), UniProt Q9NYW0); test: hT2R panel inhibition, transient HEK293 G16g44, agonist Strychnine 50 μM; format: cell-based; conditions: receptor activated to EC80 with the corresponding agonist; for inhibition at 25 µM: HEK293, read-out: screening result against bitter receptor 10, compound at 25 μM
hT2R54 = test: hT2R panel inhibition, transient HEK293 G16g44, agonist Ranitidine 5 mM; format: cell-based, human; conditions: compound at 25 μM; receptor activated to EC80 with the corresponding agonist
In short: as §1

hT2R63 = test: hT2R panel inhibition, transient HEK293 G16g44, agonist Caffeine 1 mM or Andrographolide 100 μM; format: cell-based, human; conditions: compound at 25 μM; receptor activated to EC80 with the corresponding agonist
In short: as §1

hT2R14 [1] = biological target: T1, hT2R14 (Homo sapiens (Human), UniProt Q9NYV8); test: hT2R panel inhibition, transient HEK293 G16g44, agonist Aristolochic Acid 2 μM; format: cell-based; conditions: receptor activated to EC80 with the corresponding agonist; for inhibition at 25 µM: HEK293, compound at 25 μM, read-out: screening result against bitter receptor 14
In short: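 Agonist challenge was at EC80, with 0.5 mM andrographolide on hT2R8 and 2 μM aristolochic acid on hT2R14. Inhibition was measured in functional assays in HEK293 cells that stably carry the promiscuous G protein G16g44 and were transiently transfected with the individual receptor.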

hT2R14 [2] = biological target: T1, hT2R14; test: hT2R14 antagonist high-throughput FLIPR assay, stable cell line with G16g44, agonist aristolochic acid; format: cell-based; conditions: read-out: IC50 on hT2R14 bitter receptor
In short: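 Compounds were co-applied with 3 μM aristolochic acid, a dose set to reach 70-80% of maximal hT2R14 activation. Read-out was FLIPR fluorescence in a stable HEK293 line co-expressing hT2R14 and G16g44.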

hT2R9 = hT2R9 (Homo sapiens (Human), UniProt Q9NYW1); test: hT2R panel inhibition, transient HEK293 G16g44, agonist Ofloxacin 1 mM; format: cell-based; conditions: HEK293, compound at 25 μM; receptor activated to EC80 with the corresponding agonist; read-out: screening result against bitter receptor 9
In short: as §1

hT2R75 = hT2R75 (Homo sapiens (Human), UniProt P59540); test: hT2R panel inhibition, transient HEK293 G16g44, agonist Strychnine 1 μM; format: cell-based; conditions: receptor activated to EC80 with the corresponding agonist; for inhibition at 25 µM: HEK293, read-out: screening result against bitter receptor 75, compound at 25 μM
hT2R65 = test: hT2R panel inhibition, transient HEK293 G16g44, agonist Oleuropein 1 mM; format: cell-based, human; conditions: compound at 25 μM; receptor activated to EC80 with the corresponding agonist
In short: as §1

hT2R61 = hT2R61 (Homo sapiens (Human), UniProt P59537); test: hT2R panel inhibition, transient HEK293 G16g44, agonist Aristolochic Acid 25 nM; format: cell-based; conditions: receptor activated to EC80 with the corresponding agonist; for inhibition at 25 µM: HEK293, compound at 25 μM, read-out: screening result against bitter receptor 61
In short: as §1

hT2R13 = hT2R13 (Homo sapiens (Human), UniProt Q9NYV9); test: hT2R panel inhibition, transient HEK293 G16g44, agonist Oxyphenonium 1 mM; format: cell-based; conditions: HEK293, compound at 25 μM; receptor activated to EC80 with the corresponding agonist; read-out: screening result against bitter receptor 13
In short: as §1

hT2R7 = hT2R7 (Homo sapiens (Human), UniProt Q9NYW3); test: hT2R panel inhibition, transient HEK293 G16g44, agonist Chloroquine pH6.5 10 mM; format: cell-based; conditions: HEK293, compound at 25 μM; receptor activated to EC80 with the corresponding agonist; read-out: screening result against bitter receptor 7
In short: as §1

hT2R64 = hT2R64 (Homo sapiens (Human), UniProt P59538); test: hT2R panel inhibition, transient HEK293 G16g44, agonist Aristolochic Acid 1 μM; format: cell-based; conditions: receptor activated to EC80 with the corresponding agonist; for inhibition at 25 µM: HEK293, compound at 25 μM, read-out: screening result against bitter receptor 64
In short: as §1

hT2R44 = test: hT2R panel inhibition, transient HEK293 G16g44, agonist Denatonium 0.5 μM; format: cell-based, human; conditions: compound at 25 μM; receptor activated to EC80 with the corresponding agonist
In short: as §1

hT2R51 = hT2R51 (Homo sapiens (Human), UniProt P59533); test: hT2R panel inhibition, transient HEK293 G16g44, agonist Prop 2.5 μM; format: cell-based; conditions: receptor activated to EC80 with the corresponding agonist; for inhibition at 25 µM: HEK293, compound at 25 μM, read-out: screening result against bitter receptor 51
In short: as §1

hT2R4 = hT2R4 (Homo sapiens (Human), UniProt Q9NYW5); test: hT2R panel inhibition, transient HEK293 G16g44, agonist Chloroquine pH6.5 5 mM; format: cell-based; conditions: HEK293, compound at 25 μM; receptor activated to EC80 with the corresponding agonist; class symbols; read-out: screening result against bitter receptor 4
In short: as §1

hT2R5 = hT2R5 (Homo sapiens (Human), UniProt Q9NYW4); test: hT2R panel inhibition, transient HEK293 G16g44, agonist Picoline 10 mM; format: cell-based; conditions: HEK293, compound at 25 μM; receptor activated to EC80 with the corresponding agonist; read-out: screening result against bitter receptor 5
In short: as §1

Chain of hT2R3 (Q9NYW6 whole entry): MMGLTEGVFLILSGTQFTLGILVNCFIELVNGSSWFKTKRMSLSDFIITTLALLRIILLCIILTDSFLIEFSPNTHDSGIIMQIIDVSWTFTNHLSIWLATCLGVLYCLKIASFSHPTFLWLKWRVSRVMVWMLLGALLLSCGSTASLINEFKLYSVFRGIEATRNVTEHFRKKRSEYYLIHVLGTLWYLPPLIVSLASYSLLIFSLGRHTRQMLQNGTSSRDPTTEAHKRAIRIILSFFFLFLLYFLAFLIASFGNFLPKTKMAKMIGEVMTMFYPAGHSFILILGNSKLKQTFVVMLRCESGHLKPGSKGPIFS
Chain of hT2R7 (Q9NYW3 whole entry): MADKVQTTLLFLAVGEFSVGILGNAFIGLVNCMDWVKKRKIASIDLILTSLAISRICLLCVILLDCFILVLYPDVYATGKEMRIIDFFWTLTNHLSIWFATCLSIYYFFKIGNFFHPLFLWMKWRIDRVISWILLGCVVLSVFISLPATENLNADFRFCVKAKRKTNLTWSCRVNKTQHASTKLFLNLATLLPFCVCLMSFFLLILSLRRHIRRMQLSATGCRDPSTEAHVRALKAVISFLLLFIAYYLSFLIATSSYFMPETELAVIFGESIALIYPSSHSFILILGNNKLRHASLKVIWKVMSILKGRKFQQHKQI
Chain of hT2R13 (Q9NYV9 whole entry): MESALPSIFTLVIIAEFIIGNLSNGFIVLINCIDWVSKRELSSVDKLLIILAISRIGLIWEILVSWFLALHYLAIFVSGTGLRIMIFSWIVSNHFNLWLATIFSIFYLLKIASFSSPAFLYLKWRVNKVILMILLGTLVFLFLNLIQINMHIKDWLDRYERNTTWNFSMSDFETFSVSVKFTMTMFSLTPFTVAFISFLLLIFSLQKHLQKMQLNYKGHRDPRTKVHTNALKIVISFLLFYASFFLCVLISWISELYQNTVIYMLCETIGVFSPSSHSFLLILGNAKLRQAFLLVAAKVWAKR
Chain of hT2R61 (P59537 whole entry): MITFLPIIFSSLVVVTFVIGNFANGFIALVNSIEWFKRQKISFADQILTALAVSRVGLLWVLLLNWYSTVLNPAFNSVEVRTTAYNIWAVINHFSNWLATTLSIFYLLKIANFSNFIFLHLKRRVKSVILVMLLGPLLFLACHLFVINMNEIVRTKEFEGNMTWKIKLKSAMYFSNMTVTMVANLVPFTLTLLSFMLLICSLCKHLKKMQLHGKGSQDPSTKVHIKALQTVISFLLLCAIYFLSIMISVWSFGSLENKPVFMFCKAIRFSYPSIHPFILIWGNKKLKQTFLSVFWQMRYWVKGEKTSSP
Chain of hT2R71 (P59536 whole entry): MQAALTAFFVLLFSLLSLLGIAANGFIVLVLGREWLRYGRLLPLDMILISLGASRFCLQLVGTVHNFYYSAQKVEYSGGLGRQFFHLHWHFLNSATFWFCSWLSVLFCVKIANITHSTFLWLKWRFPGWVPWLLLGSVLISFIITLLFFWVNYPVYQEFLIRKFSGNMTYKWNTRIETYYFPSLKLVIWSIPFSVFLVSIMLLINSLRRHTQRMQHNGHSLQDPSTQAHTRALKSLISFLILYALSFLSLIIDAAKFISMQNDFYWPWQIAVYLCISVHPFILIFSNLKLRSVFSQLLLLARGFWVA
Chain of hT2R51 (P59533 whole entry): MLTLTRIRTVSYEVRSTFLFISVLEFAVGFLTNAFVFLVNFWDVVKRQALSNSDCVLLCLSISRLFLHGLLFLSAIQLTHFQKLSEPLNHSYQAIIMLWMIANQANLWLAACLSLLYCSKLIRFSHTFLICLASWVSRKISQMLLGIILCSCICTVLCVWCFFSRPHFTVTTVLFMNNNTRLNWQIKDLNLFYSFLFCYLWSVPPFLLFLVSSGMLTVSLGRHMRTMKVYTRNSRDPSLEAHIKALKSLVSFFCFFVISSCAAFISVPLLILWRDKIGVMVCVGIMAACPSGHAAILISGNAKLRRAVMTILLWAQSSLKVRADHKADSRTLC
Chain of hT2R64 (P59538 whole entry): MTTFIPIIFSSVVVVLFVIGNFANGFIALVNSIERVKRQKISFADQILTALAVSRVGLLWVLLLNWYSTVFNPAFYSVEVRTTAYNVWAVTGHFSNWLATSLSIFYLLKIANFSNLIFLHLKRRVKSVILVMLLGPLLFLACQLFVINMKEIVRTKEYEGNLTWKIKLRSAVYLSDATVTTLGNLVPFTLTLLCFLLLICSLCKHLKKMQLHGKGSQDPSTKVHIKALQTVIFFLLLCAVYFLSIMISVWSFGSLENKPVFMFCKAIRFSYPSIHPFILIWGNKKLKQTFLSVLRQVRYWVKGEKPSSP
Chain of hT2R10 (Q9NYW0 whole entry): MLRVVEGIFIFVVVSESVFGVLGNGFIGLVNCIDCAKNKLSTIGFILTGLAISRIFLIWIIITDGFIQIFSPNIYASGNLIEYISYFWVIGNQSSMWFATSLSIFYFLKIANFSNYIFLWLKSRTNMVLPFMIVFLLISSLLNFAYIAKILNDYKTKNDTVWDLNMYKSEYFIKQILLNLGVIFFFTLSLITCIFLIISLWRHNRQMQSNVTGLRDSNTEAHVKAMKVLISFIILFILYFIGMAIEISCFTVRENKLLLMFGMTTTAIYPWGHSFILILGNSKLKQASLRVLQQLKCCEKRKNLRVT
Chain of hT2R16 (Q9NYV7 whole entry): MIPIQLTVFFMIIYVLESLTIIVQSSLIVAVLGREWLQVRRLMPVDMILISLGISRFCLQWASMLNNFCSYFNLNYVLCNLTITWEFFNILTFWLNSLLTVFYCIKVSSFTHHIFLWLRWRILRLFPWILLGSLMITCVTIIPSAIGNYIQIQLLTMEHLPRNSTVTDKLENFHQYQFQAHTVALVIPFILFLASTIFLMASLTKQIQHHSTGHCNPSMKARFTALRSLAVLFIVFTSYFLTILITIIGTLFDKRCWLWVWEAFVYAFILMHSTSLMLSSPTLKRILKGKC
T1 sequence (Q9NYV8 whole entry): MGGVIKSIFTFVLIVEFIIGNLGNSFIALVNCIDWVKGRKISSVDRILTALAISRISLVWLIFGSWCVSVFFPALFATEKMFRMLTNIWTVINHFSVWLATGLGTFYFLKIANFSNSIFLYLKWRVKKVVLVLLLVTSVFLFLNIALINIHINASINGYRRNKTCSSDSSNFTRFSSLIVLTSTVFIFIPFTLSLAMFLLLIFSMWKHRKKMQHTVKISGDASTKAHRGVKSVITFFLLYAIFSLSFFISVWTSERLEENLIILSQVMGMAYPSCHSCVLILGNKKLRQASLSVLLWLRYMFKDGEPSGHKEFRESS
Chain of hT2R9 (Q9NYW1 whole entry): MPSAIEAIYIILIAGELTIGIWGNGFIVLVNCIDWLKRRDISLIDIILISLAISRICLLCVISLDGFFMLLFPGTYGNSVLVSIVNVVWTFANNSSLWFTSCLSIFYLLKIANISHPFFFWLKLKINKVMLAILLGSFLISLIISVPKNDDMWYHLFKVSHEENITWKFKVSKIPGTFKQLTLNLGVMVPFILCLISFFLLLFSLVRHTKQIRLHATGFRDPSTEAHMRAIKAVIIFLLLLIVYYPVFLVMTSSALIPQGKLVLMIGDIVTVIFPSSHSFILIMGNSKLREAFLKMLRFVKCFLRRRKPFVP
Chain of hT2R5 (Q9NYW4 whole entry): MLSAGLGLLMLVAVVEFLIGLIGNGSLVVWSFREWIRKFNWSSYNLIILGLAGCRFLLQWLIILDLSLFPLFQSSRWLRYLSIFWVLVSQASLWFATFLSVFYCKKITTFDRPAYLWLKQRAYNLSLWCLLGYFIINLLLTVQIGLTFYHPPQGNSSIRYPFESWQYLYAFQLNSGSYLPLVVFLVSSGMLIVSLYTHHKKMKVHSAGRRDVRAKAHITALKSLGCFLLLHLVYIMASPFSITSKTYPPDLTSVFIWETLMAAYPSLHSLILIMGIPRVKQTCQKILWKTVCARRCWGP
Chain of hT2R75 (P59540 whole entry): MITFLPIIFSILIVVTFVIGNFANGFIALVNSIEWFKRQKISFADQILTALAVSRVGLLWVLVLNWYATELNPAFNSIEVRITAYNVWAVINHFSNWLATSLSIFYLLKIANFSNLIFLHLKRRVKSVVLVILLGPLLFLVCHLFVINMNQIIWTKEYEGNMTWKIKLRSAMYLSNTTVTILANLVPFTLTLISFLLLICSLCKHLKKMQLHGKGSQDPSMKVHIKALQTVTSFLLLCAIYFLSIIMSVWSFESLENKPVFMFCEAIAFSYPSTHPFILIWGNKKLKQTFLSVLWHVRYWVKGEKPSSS
Chain of hT2R4 (Q9NYW5 whole entry): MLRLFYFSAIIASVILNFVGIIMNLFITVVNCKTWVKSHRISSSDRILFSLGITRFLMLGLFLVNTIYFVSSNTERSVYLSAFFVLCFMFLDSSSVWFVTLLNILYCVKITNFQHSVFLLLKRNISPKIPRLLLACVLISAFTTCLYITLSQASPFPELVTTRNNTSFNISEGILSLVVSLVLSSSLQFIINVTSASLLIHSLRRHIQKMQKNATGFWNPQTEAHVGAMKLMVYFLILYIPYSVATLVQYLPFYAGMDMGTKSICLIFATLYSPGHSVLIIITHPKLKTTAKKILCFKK

Compound | inhibition at 25 µM (hT2R16) [%] | screening result against bitter receptor 55 (hT2R55) | screening result against bitter receptor 67 (hT2R67) | screening result against bitter receptor 54 (hT2R54) | screening result against bitter receptor 63 (hT2R63) | IC50 (hT2R14 [2]) [nM] | inhibition at 25 µM (hT2R9) [%] | screening result against bitter receptor 65 (hT2R65) | inhibition at 25 µM (hT2R13) [%] | inhibition at 25 µM (hT2R7) [%] | screening result against bitter receptor 44 (hT2R44) | inhibition at 25 µM (hT2R4) [%] | inhibition at 25 µM (hT2R3) [%] | inhibition at 25 µM (hT2R71) [%] | inhibition at 25 µM (hT2R10) [%] | inhibition at 25 µM (hT2R14 [1]) [%] | inhibition at 25 µM (hT2R5) [%] | inhibition at 25 µM (hT2R61) [%] | inhibition at 25 µM (hT2R64) [%] | inhibition at 25 µM (hT2R51) [%] | also measured
COc1ccc(CN(Cc2ccc(F)cc2)S(=O)(=O)c2ccc(C(=O)O)cc2)cc1 [Example 5-10, 4-(N-(4-fluorobenzyl)-N-(4-methoxybenzyl)sulfamoyl)benzoic acid] | > 80 | +++ (60% to 80% inhibition = +++) | +++ (60% to 80% inhibition = +++) | ++++ (80% or greater inhibition = ++++) | ++++ (80% or greater inhibition = ++++) | 1970 | 40 to 60 | ++++ (80% or greater inhibition = ++++) | 40 to 60 | 40 to 60 | ++ (40% to 60% inhibition = ++) |  |  |  |  |  |  |  |  |  | screening result against bitter receptor 3 (hT2R3; compound at 25 μM): +++ (60% to 80% inhibition = +++); screening result against bitter receptor 71 (hT2R71; compound at 25 μM): +++ (60% to 80% inhibition = +++); screening result against bitter receptor 10 (hT2R10; compound at 25 μM): ++++ (80% or greater inhibition = ++++); screening result against bitter receptor 14 (hT2R14 [1]; compound at 25 μM): ++++ (80% or greater inhibition = ++++); screening result against bitter receptor 75 (hT2R75; compound at 25 μM): + (20% to 40% inhibition = +); screening result against bitter receptor 61 (hT2R61; compound at 25 μM): ++++ (80% or greater inhibition = ++++); screening result against bitter receptor 64 (hT2R64; compound at 25 μM): +++ (60% to 80% inhibition = +++); screening result against bitter receptor 51 (hT2R51; compound at 25 μM): ++++ (80% or greater inhibition = ++++)
COc1ccc(CN(Cc2cccc(F)c2F)S(=O)(=O)c2ccc(C(=O)O)cc2)cc1 [Example 5-33, 4-(N-(2,3-difluorobenzyl)-N-(4-methoxybenzyl)sulfamoyl)benzoic acid] | 40 to 60 | ++++ (80% or greater inhibition = ++++) | ++ (40% to 60% inhibition = ++) | +++ (60% to 80% inhibition = +++) | +++ (60% to 80% inhibition = +++) |  | 20 to 40 | +++ (60% to 80% inhibition = +++) | 20 to 40 | 20 to 40 | +++ (60% to 80% inhibition = +++) | 40 to 60 | 40 to 60 | 60 to 80 | 60 to 80 | > 80 | 40 to 60 | > 80 | 60 to 80 | 40 to 60 | 
COc1ccc(CN(CC2CCCCC2)S(=O)(=O)c2ccc(C(=O)O)cc2)cc1 [Example 5-23, 4-(N-(cyclohexylmethyl)-N-(4-methoxybenzyl)sulfamoyl)-benzoic acid] | 60 to 80 | ++++ (80% or greater inhibition = ++++) | ++ (40% to 60% inhibition = ++) |  |  | 3470 | 40 to 60 | ++++ (80% or greater inhibition = ++++) | 20 to 40 | 40 to 60 |  | 40 to 60 | 60 to 80 | > 80 | > 80 | > 80 | 40 to 60 | > 80 | 60 to 80 | 40 to 60 | inhibition at 25 µM (hT2R75): 40 to 60%
COc1ccc(CN(Cc2cccc(F)c2)S(=O)(=O)c2ccc(C(=O)O)cc2)cc1 [Example 5-12, 4-(N-(3-fluorobenzyl)-N-(4-methoxybenzyl)sulfamoyl)benzoic acid] | 60 to 80 | ++++ (80% or greater inhibition = ++++) | +++ (60% to 80% inhibition = +++) | ++++ (80% or greater inhibition = ++++) | ++++ (80% or greater inhibition = ++++) |  | 40 to 60 | ++++ (80% or greater inhibition = ++++) | 20 to 40 | 40 to 60 | +++ (60% to 80% inhibition = +++) |  | 60 to 80 | > 80 | > 80 | > 80 | 40 to 60 | > 80 | 60 to 80 | > 80 | inhibition at 25 µM (hT2R75): 20 to 40%
